Test results taken from US10815229B1, “Benzenesulfonamide compounds and their use as therapeutic agents” (Xenon Pharmaceuticals Inc., priority 2016, dated 2020).

Legend:
NaV1.1 = NaV1.1 (Homo sapiens (Human), UniProt P35498); test: Sodium Influx Assay (Flux), NaV1.1; assay type: cell-based; details: Trex HEK293 cells, ANG2 dye; arithmetic mean
NaV1.6 = NaV1.6 (Homo sapiens (Human), UniProt Q9UQD0); test: Sodium Influx Assay (Flux), NaV1.6; details: read-out: Flux NaV1.6 IC50; Trex HEK293 cells, ANG2 dye; arithmetic mean

Q: Which IC50 (NaV1.1) does the source give for “(S)-2-fluoro-4-((1-(2-hydroxybenzyl)-pyrrolidin-3-yl)(methyDamino)-5-methyl-N-(thiazol-4-yl)benzenesulfonamide [Example 113]” here?
A: The IC50 was 17.9 µM.

Q: And the IC50 (NaV1.6)?
A: Its IC50 is 0.258 µM.
